Where “and” joins values, the source holds several entries; their conditions need not be identical. Equal entries are not always repeated. After the bases stand the sugars from the 5' end (letter, count) and the backbone: PS all phosphorothioate, else s phosphorothioate and o phosphodiester by linkage. Methylation of C is not given here. e = 2'-O-(2-methoxyethyl) (MOE); k = constrained ethyl (cEt); d = 2'-deoxy (DNA)

In this data set the target is IRF4. The following applies: ASO.

Regarding TTAAACAGCACTCAGA (sugars k3 d10 k3, PS), the target mRNA inhibition (SK-MEL-28, 4 µM) is 33%.
In the case of ATGGCTAAACCTGGCA (sugars k3 d10 k3, PS), the target mRNA inhibition (MM.1R, 1 µM) stood at 22%.
Regarding CGGCAGTCTGCAAACA (sugars k3 d10 k3, PS), where the note is “MM.1R, 1 µM”, the target mRNA inhibition worked out at 24%.
Turning to CGGGAGCCCGGAGGAA (sugars k3 d10 k3, PS), the target mRNA inhibition (MM.1R, 1 µM) was -3%.
In the case of GGCGACTGCTGAAAAC (sugars k3 d10 k3, PS), under “MM.1R, 1 µM”, the target mRNA inhibition was -10%.
On to CGGATAGATCTGTGGT (sugars k3 d10 k3, PS), for which the target mRNA inhibition is -25% (MM.1R, 0.0625 µM); -3% (MM.1R, 0.25 µM); 50% (MM.1R, 4 µM).
Consider TAGCAGAGGTTCTACG (sugars k3 d10 k3, PS), for which, for the setting “SK-MEL-28, 4 µM”, the target mRNA inhibition is 24%.
TGTAAATGAGTCGGTC (sugars k3 d10 k3, PS): the target mRNA inhibition (SK-MEL-28, 4 µM) amounted to 69%.
Take TGTGGTTTCACATGAT (sugars k3 d10 k3, PS): the target mRNA inhibition (MM.1R, 1 µM) worked out at 21%.
As to GAGTCTTTGAGGCTGC (sugars k3 d10 k3, PS), the target mRNA inhibition (SK-MEL-28, 4 µM) was determined as 34%.
On the same count and under the same terms, the value for AGTAACTGACACGCAC (sugars k3 d10 k3, PS) was 51%; that for AAATTAAAGAGCGCAT (sugars k3 d10 k3, PS) was 13%.
Regarding “GACAGTGACTTGCATC (sugars kkdddddddddkekek, PS)”, the target mRNA inhibition (MM.1R, 1 µM) was determined as 5%.
In the case of “AAGCATTTTATCATCC (sugars kkdddddddddkekek, PS)”, the target mRNA inhibition (MM.1R, 1 µM) worked out at 18%.
Turning to “TTGATGTGATAGCTGA (sugars kkdddddddddkdkdk, PS)”, the target mRNA inhibition (MM.1R, 1 µM) worked out at 36%.
AAAGGTTCCTGTCACC (sugars k3 d10 k3, PS): the target mRNA inhibition (SK-MEL-28, 4 µM) was found to be 38%.
As to ATAGCTGAGCTGATCA (sugars k3 d10 k3, PS), the target mRNA inhibition (MM.1R, 1 µM) worked out at 30%.
For the sequence GTAACTAACTCAAAAG (sugars k3 d10 k3, PS), the target mRNA inhibition (SK-MEL-28, 4 µM) was -1%.
Take TCTACCTACTCCATCA (sugars k3 d10 k3, PS): the target mRNA inhibition (SK-MEL-28, 4 µM) came to 47%.
As for CATCCGAAAAGACTGG (sugars k3 d10 k3, PS), the target mRNA inhibition (MM.1R, 1 µM) was found to be 14%.
Turning to “TGTAGTATGAGAAACG (sugars e1 k2 d9 k2 e2, PS)”, the target mRNA inhibition (MM.1R, 1 µM) was determined as 6%.
On to ACCAAAAGTACCACAG (sugars k3 d10 k3, PS), for which the target mRNA inhibition (MM.1R, 1 µM) was -8%.
Same read-out and setting: the value for ACCTAACTAAATGTCA (sugars k3 d10 k3, PS) was -24%.
On to “GCATTTTATCATCCGA (sugars e1 k2 d9 k2 e2, PS)”, for which the target mRNA inhibition worked out at 18% (MM.1R, 0.074 µM); 34% (MM.1R, 0.222 µM); 57% (MM.1R, 0.666 µM); 61% (MM.1R, 1 µM); 83% (MM.1R, 2 µM).
For the sequence CCTATAACTTCTCCTG (sugars k3 d10 k3, PS), the target mRNA inhibition (MM.1R, 1 µM) was -7%.
With CTAATACCTACCTGCC (sugars k3 d10 k3, PS), the target mRNA inhibition (SK-MEL-28, 4 µM) amounted to 47%.
As for AATTCTCCTATGCTGA (sugars k3 d10 k3, PS), where the note is “SK-MEL-28, 4 µM”, the target mRNA inhibition was 13%.
For GTTGCATGGCTAATGA (sugars k3 d10 k3, PS), the target mRNA inhibition (SK-MEL-28, 4 µM) was determined as 61%.
Consider ATCAGAATGTTTCGAC (sugars k3 d10 k3, PS), for which the target mRNA inhibition (SK-MEL-28, 4 µM) was 46%.
Consider TCCTATGCTGAACCCC (sugars k3 d10 k3, PS), for which, under “SK-MEL-28, 4 µM”, the target mRNA inhibition turned out to be 36%.
For the sequence AAGCCGTTCCTTTTCA (sugars k3 d10 k3, PS), the target mRNA inhibition (SK-MEL-28, 4 µM) amounted to 29%.
Turning to TCCAGGAAAGGCCAAG (sugars k3 d10 k3, PS), the target mRNA inhibition (SK-MEL-28, 4 µM) came to 49%.
As for GGGTTAAAGATGTTAC (sugars k3 d10 k3, PS), the target mRNA inhibition (SK-MEL-28, 4 µM) amounted to 50%.
As for TATGAGAAACGGCCTG (sugars k3 d10 k3, PS), the target mRNA inhibition (SK-MEL-28, 4 µM) is 45%.
Regarding AACACCTGATCTTGCT (sugars k3 d10 k3, PS), under “SK-MEL-28, 4 µM”, the target mRNA inhibition was -10%.
Take TGGCAGGGAGCGGCCG (sugars k3 d10 k3, PS): the target mRNA inhibition (SK-MEL-28, 4 µM) came to 11%.
Consider “GCATTTTATCATCCGA (sugars kkdddddddddekeke, PS)”, for which the target mRNA inhibition (MM.1R, 1 µM) is 44%.
Consider AGATCGAGCGGTGAAA (sugars k3 d10 k3, PS), for which the target mRNA inhibition (SK-MEL-28, 4 µM) turned out to be 24%.
In the case of TCCAAAGGGTTCAGTG (sugars k3 d10 k3, PS), the target mRNA inhibition (MM.1R, 1 µM) turned out to be 7%.
Take CAGTGGAGCTCCACAG (sugars k3 d10 k3, PS): the target mRNA inhibition (SK-MEL-28, 4 µM) was 41%.
“AGTGACTTGCATCCAT (sugars kkddddddddddkeke, PS)”: the target mRNA inhibition (MM.1R, 1 µM) was found to be 50%.
AAAGTCCCATCGAATC (sugars k3 d10 k3, PS): the target mRNA inhibition (SK-MEL-28, 4 µM) worked out at 13%.
ATGCGAAGAATTTTAG (sugars k3 d10 k3, PS): the target mRNA inhibition (SK-MEL-28, 4 µM) worked out at 21%.
Still for that read-out and setting: the value for AAGCTAAACTCCTAAG (sugars k3 d10 k3, PS) was 15%.
For “TTCATGTAAAGTCTGC (sugars kddddddddddkekek, PS)”, the target mRNA inhibition (MM.1R, 1 µM) is 2% and -18%.
Consider CAGAACGAGGTAAATC (sugars k3 d10 k3, PS), for which the target mRNA inhibition (SK-MEL-28, 4 µM) was 59%.
As to GGAGATCCTTTTTATT (sugars k3 d10 k3, PS), the target mRNA inhibition (SK-MEL-28, 4 µM) came out at 32%.

For the origin of these results see the OligoGym collection.
